Experimental data reported in patent US20120225062A1 (priority 2011, published 2012).

Legend:
Pim 3 = Pim 3 (Homo sapiens, UniProt Q86V86); assay: Pim 3 AlphaScreen assay (high ATP)
Pim 2 = Pim 2 (Homo sapiens, UniProt Q9P1W9); assay: Pim 2 AlphaScreen assay (high ATP)
Pim 1 = Pim 1 (Homo sapiens, UniProt P11309); assay: Pim 1 AlphaScreen assay (high ATP)
[1] = system: KMS11 (human myeloma cell line); assay: Cell Proliferation Assay (CellTiter-Glo, 3 days); format: cell-based; settings: KMS-11, 72 h, KMS11-luc cells
Summary of the method: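 EC50 from CellTiter-Glo luminescence after 3-day, 37° C compound treatment of KMS11 cells seeded at 2000 per well in IMDM plus 10% FBS.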

Sequence of Pim 1 (P11309 whole entry): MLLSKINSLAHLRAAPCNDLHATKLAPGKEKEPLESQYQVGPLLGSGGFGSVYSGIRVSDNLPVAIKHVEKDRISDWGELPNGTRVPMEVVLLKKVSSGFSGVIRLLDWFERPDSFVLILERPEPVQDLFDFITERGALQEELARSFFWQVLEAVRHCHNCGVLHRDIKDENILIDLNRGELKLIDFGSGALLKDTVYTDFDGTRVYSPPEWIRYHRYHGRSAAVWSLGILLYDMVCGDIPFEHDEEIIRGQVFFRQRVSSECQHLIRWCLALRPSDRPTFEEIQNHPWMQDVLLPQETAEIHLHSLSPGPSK
Sequence of Pim 2 (Q9P1W9 whole entry): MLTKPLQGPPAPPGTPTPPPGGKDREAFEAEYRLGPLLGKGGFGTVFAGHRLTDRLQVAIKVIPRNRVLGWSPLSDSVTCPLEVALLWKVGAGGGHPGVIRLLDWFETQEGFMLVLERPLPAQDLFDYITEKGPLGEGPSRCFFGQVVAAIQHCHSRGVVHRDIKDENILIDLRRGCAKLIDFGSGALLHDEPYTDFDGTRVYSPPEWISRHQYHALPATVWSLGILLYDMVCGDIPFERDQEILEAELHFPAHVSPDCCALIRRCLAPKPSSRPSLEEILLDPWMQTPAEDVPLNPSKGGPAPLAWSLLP

Structure (SMILES)	IC50 (Pim 3) [nM]	IC50 (Pim 2) [nM]	IC50 (Pim 1) [nM]	EC50 [1] [nM]
CC(C)Oc1cc(F)c(-c2nc(C(=O)Nc3cnccc3[C@@H]3C[C@H](C)C[C@H](N)C3)ccc2F)c(F)c1 [Example 75, N-(4-((1R,3S,5S)-3-amino-5-methylcyclohexyl)pyridin-3-yl)-6-(2,6-difluoro-4-isopropoxyphenyl)-5-fluoropicolinamide]	0.62	1.55	0.02	44
Cc1noc(C)c1-c1cc(F)c(-c2nc(C(=O)Nc3cnccc3[C@@H]3C[C@H](C)C[C@H](N)C3)ccc2F)c(F)c1 [Example 174, N-(4-((1R,3S,5S)-3-amino-5-methylcyclohexyl)pyridin-3-yl)-6-(4-(3,5-dimethylisoxazol-4-yl)-2,6-difluorophenyl)-5-fluoropicolinamide]	10.1	30	0.08	1020
C[C@H]1CN(c2ccncc2NC(=O)c2ccc(F)c(-c3c(F)cc(O[C@@H]4CCCOC4)cc3F)n2)C[C@@H](N)[C@@H]1O [Example 105, N-(4-((3R,4R,5S)-3-amino-4-hydroxy-5-methylpiperidin-1-yl)pyridin-3-yl)-6-(2,6-difluoro-4-((R)-tetrahydro-2H-pyran-3-yloxy)phenyl)-5-fluoropicolinamide]	0.17	0.64	0.01	96
C[C@@H]1C[C@H](N)C[C@H](c2ccncc2NC(=O)c2ccc(F)c(-c3c(F)cc(OCC(C)(C)O)cc3F)n2)C1 [Example 50, N-(4-((1R,3S,5S)-3-amino-5-methylcyclohexyl)pyridin-3-yl)-6-(2,6-difluoro-4-(2-hydroxy-2-methylpropoxy)phenyl)-5-fluoropicolinamide]	0.72	3.28	0.02	13
C[C@H]1CN(c2ccncc2NC(=O)c2ccc(F)c(-c3c(F)cc(CCO)cc3F)n2)C[C@@H](N)[C@@H]1O [Example 35, N-(4-((3R,4R,5S)-3-amino-4-hydroxy-5-methylpiperidin-1-yl)pyridin-3-yl)-6-(2,6-difluoro-4-(2-hydroxyethyl)phenyl)-5-fluoropicolinamide]	0.36	1.09	0.03	7
C[C@@H]1C[C@H](N)C[C@H](c2ccncc2NC(=O)c2ccc(F)c(-c3c(F)cc(O[C@H]4CCCOC4)cc3F)n2)C1 [Example 79, N-(4-((1R,3S,5S)-3-amino-5-methylcyclohexyl)pyridin-3-yl)-6-(2,6-difluoro-4-((S)-tetrahydro-2H-pyran-3-yloxy)phenyl)-5-fluoropicolinamide]	0.24	1.08	0.01	12
C[C@H]1CN(c2ccncc2NC(=O)c2ccc(F)c(-c3c(F)cc(C4CCS(=O)(=O)CC4)cc3F)n2)C[C@@H](N)[C@@H]1O [Example 204, N-(4-((3R,4R,5S)-3-amino-4-hydroxy-5-methylpiperidin-1-yl)pyridin-3-yl)-6-(4-(1,1-dioxidotetrahydro-2H-thiopyran-4-yl)-2,6-difluorophenyl)-5-fluoropicolinamide]	0.14	0.38	0.01	115
C[C@@H]1C[C@H](N)C[C@H](c2ccncc2NC(=O)c2ccc(F)c(-c3c(F)cc4c(c3F)OCC[C@]4(C)O)n2)C1 [Example 239, N-(4-((1R,3S,5S)-3-amino-5-methylcyclohexyl)pyridin-3-yl)-6-((S)-6,8-difluoro-4-hydroxy-4-methylchroman-7-yl)-5-fluoropicolinamide]	1.1	1.72	0.01	31
CC(C)Oc1cc(F)c(-c2nc(C(=O)Nc3cnccc3N3C[C@@H](N)[C@H](O)[C@@H](C)C3)ccc2F)c(F)c1 [Example 93, N-(4-((3R,4R,5S)-3-amino-4-hydroxy-5-methylpiperidin-1-yl)pyridin-3-yl)-6-(2,6-difluoro-4-isopropoxyphenyl)-5-fluoropicolinamide]	0.1	0.78	0.01	20
C[C@@H]1C[C@H](N)C[C@H](c2ccncc2NC(=O)c2nc(-c3c(F)cc(C4(O)CCC4)cc3F)c(F)cc2N)C1 [Example 220, 3-amino-N-(4-((1R,3S,5S)-3-amino-5-methylcyclohexyl)pyridin-3-yl)-6-(2,6-difluoro-4-(1-hydroxycyclobutyl)phenyl)-5-fluoropicolinamide]	0.14	0.64	0.01	8
CCC(=O)c1cc(F)c(-c2nc(C(=O)Nc3cnccc3N3C[C@@H](N)[C@H](O)[C@@H](C)C3)ccc2F)c(F)c1 [Example 104, N-(4-((3R,4R,5S)-3-amino-4-hydroxy-5-methylpiperidin-1-yl)pyridin-3-yl)-6-(2,6-difluoro-4-propionylphenyl)-5-fluoropicolinamide]	0.45	0.95	0.02	19
COC1(c2cc(F)c(-c3nc(C(=O)Nc4cnccc4[C@@H]4C[C@H](C)C[C@H](N)C4)c(N)cc3F)c(F)c2)COC1 [Example 90, 3-amino-N-(4-((1R,3S,5S)-3-amino-5-methylcyclohexyl)pyridin-3-yl)-6-(2,6-difluoro-4-(3-methoxyoxetan-3-yl)phenyl)-5-fluoropicolinamide]	0.71	0.72	0.01	19
COC(C)(C)c1cc(F)c(-c2nc(C(=O)Nc3cnccc3N3C[C@@H](N)[C@H](O)[C@@H](C)C3)ccc2F)c(F)c1 [Example 130, N-(4-((3R,4R,5S)-3-amino-4-hydroxy-5-methylpiperidin-1-yl)pyridin-3-yl)-6-(2,6-difluoro-4-(2-methoxypropan-2-yl)phenyl)-5-fluoropicolinamide]	0.42	1.36	0.02	24
CCC(=O)c1cc(F)c(-c2nc(C(=O)Nc3cnccc3[C@@H]3C[C@H](C)C[C@H](N)C3)ccc2F)c(F)c1 [Example 43, N-(4-((1R,3S,5S)-3-amino-5-methylcyclohexyl)pyridin-3-yl)-6-(2,6-difluoro-4-propionylphenyl)-5-fluoropicolinamide]	11.4	15.3	0.14	43

Other lines, results leading:

IC50 (Pim 3) [nM]	IC50 (Pim 2) [nM]	IC50 (Pim 1) [nM]	EC50 [1] [nM]	Structure (SMILES)
10.2	31.8	0.47	1850	C=Cc1ccc(F)c(-c2nc(C(=O)Nc3cnccc3[C@H]3C[C@@H](N)[C@H](O)[C@@H](C)C3)ccc2F)c1F [Example 193, N-(4-((1R,3R,4R,5S)-3-amino-4-hydroxy-5-methylcyclohexyl)pyridin-3-yl)-6-(2,6-difluoro-3-vinylphenyl)-5-fluoropicolinamide]
1.07	1.52	0.02	1380	C[C@H]1C[C@@H](c2ccncc2NC(=O)c2ccc(F)c(-c3c(F)cc(C4CCS(=O)(=O)CC4)cc3F)n2)C[C@@H](N)[C@H]1O [Example 205, N-(4-((1R,3R,4S,5S)-3-amino-4-hydroxy-5-methylcyclohexyl)pyridin-3-yl)-6-(4-(1,1-dioxidotetrahydro-2H-thiopyran-4-yl)-2,6-difluorophenyl)-5-fluoropicolinamide]
0.82	2.58	0.03	26	C[C@@H]1C[C@H](N)C[C@H](c2ccncc2NC(=O)c2ccc(F)c(-c3c(F)cc(OCCO)cc3F)n2)C1 [Example 229, N-(4-((1R,3S,5S)-3-amino-5-methylcyclohexyl)pyridin-3-yl)-6-(2,6-difluoro-4-(2-hydroxyethoxy)phenyl)-5-fluoropicolinamide]
0.8	2.77	0.03	139	C[C@H]1C[C@@H](c2ccncc2NC(=O)c2ccc(F)c(-c3c(F)cc(OCC4CC4)cc3F)n2)C[C@@H](N)[C@@H]1O [Example 42, N-(4-((1R,3R,4R,5S)-3-amino-4-hydroxy-5-methylcyclohexyl)pyridin-3-yl)-6-(4-(cyclopropylmethoxy)-2,6-difluorophenyl)-5-fluoropicolinamide]
2.46	5.57	0.07	72	COCCOc1cc(F)c(-c2nc(C(=O)Nc3cnccc3[C@H]3C[C@@H](N)[C@H](O)[C@@H](C)C3)ccc2F)c(F)c1 [Example 24, N-(4-((1R,3R,4R,5S)-3-amino-4-hydroxy-5-methylcyclohexyl)pyridin-3-yl)-6-(2,6-difluoro-4-(2-methoxyethoxy)phenyl)-5-fluoropicolinamide]
1.15	4.01	0.04	68	C[C@H]1C[C@@H](c2ccncc2NC(=O)c2ccc(F)c(-c3c(F)cc(OC4CCOC4)cc3F)n2)C[C@@H](N)[C@@H]1O (stereo in doubt) [Example 70, N-(4-((1R,3R,4R,5S)-3-amino-4-hydroxy-5-methylcyclohexyl)pyridin-3-yl)-6-(2,6-difluoro-4-((S)-tetrahydrofuran-3-yloxy)phenyl)-5-fluoropicolinamide]
0.65	2.01	0.03	23	Cc1cc(F)c(-c2nc(C(=O)Nc3cnccc3[C@H]3C[C@@H](N)[C@H](O)[C@@H](C)C3)c(N)cc2F)c(F)c1 [Example 219, 3-amino-N-(4-((1R,3R,4R,5S)-3-amino-4-hydroxy-5-methylcyclohexyl)pyridin-3-yl)-6-(2,6-difluoro-4-methylphenyl)-5-fluoropicolinamide]
0.94	1.69	0.02	23	COCCc1cc(F)c(-c2nc(C(=O)Nc3cnccc3[C@@H]3C[C@H](C)C[C@H](N)C3)ccc2F)c(F)c1 [Example 67, N-(4-((1R,3S,5S)-3-amino-5-methylcyclohexyl)pyridin-3-yl)-6-(2,6-difluoro-4-(2-methoxyethyl)phenyl)-5-fiuoropicolinamide]
